# Measured values: patent US12370170B2, “Composition comprising naphthoquinone-based compound as active ingredient, for preventing or ameliorating fatigue, cachexia, pain, cognitive decline and hematopoietic stem cell reduction which are side effects related to anticancer drug treatment” (NADIANBIO LTD., priority 2016, dated 2025)
# Tests used:
# orexin = test: Orexin protein in hypothalamus by ELISA, 4×ACP animal model; format: in vivo, C57BL/6 mice; settings: dunnione 80 mg/kg oral daily from 3 days before, 2 days after ACP
# Experimental: (§1) In this invention, 11 weeks old C57BL/6 mice were used. All the mice used in the experiments of the invention were raised in an aseptic animal room at the temperature of 22˜26 L with the humidity of 55˜60%. The mice were allowed to take general solid feed (SAMTACO Co., Ltd., Korea) and water freely. The mice were adapted for 1 week before the experiment. All the experiments were performed after obtaining approval from the clinical trial management committee in accordance with the laboratory animal care and ethics regulations of Wonkwang University. The mouse animal model of the present invention was treated with different anticancer drugs. Particularly, one kind of anticancer drug was administered intraperitoneally one time or more, or several kinds of anticancer drugs were administered once or more times or at different concentrations, leading to the establishment of the animal model of the invention. […]
# To analyze orexin protein in the 4×ACP animal model prepared by the same manner as described in Example 8, the hypothalamus of the mouse was extracted, followed by the preparation of a homogenate. Orexin (MyBioSource, MBS2505504) was analyzed by ELISA to investigate the regulatory effect of β-lapachone on orexin.
# TNF-α = TNF-α expression in femur by immunohistostaining, 4×ACP animal model; format: in vivo, C57BL/6 mice; settings: dunnione 80 mg/kg oral
# Experimental: as §1, with “invention. In the adriamycin-induced animal model, the mice were divided into 6 groups as follows: the control group administered with PBS (Control, 5 mice), the group administered intraperitoneally with adriamycin (4 mg/kg/day) 3 times (ADR, 5 mice), the group administered orally with dunnione or β-lapachone from 3 days before the adriamycin treatment daily (20 mg/kg, 5 mice), and the group administered with dunnione or β-lapachone (20 mg/kg, 5 mice).” for “invention.”
compound,measurement,setting,value
"CC1OC2=C(C(=O)C(=O)c3ccccc32)C1(C)C (centres unmarked) [dunnione, 2,3-dihydro-2,3,3-trimethyl naphtho [1,2-b]furan-4,5-dione]",orexin reduction in the hypothalamus,orexin,recovered significantly almost to the same level of the control group
same,up-regulation of TNF-α in the bone (femur),TNF-α,significantly suppressed
